Results taken from PubChem BioAssay (NCI).
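Assay format: 96-well plates, 48-hour exposure. GI50 = concentration required for 50% inhibition of growth. TGI marks complete inhibition of growth.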

How the values were obtained:
Assay in all cases: growth of human tumour cells (NCI), 48 h; in the data active = GI50 below about 0.43 µM; inactive = the rest
786-0 renal = test system: 786-0 renal
A498 renal = test system: A498 renal
A549 NSCLC = test system: A549 NSCLC
ACHN renal = test system: ACHN renal
BT-549 breast = test system: BT-549 breast
CAKI-1 renal = test system: CAKI-1 renal
CCRF-CEM leukemia = test system: CCRF-CEM leukemia
DU-145 prostate = test system: DU-145 prostate
EKVX NSCLC = test system: EKVX NSCLC
HCC-2998 colon = test system: HCC-2998 colon
HCT-116 colon = test system: HCT-116 colon
HCT-15 colon = test system: HCT-15 colon
HL-60(TB) leukemia = test system: HL-60(TB) leukemia
HOP-62 NSCLC = test system: HOP-62 NSCLC
HOP-92 NSCLC = test system: HOP-92 NSCLC
HS 578T breast = test system: HS 578T breast
HT29 colon = test system: HT29 colon
IGROV1 ovarian = test system: IGROV1 ovarian
K-562 leukemia = test system: K-562 leukemia
KM12 colon = test system: KM12 colon
LOX IMVI melanoma = test system: LOX IMVI melanoma
M14 melanoma = test system: M14 melanoma
MALME-3M melanoma = test system: MALME-3M melanoma
MCF7 breast = test system: MCF7 breast
MDA-MB-231 breast = test system: MDA-MB-231 breast
MDA-MB-435 = test system: MDA-MB-435
MOLT-4 leukemia = test system: MOLT-4 leukemia
NCI-H226 lung = test system: NCI-H226 lung
NCI-H460 lung = test system: NCI-H460 lung
NCI-H522 lung = test system: NCI-H522 lung
NCI/ADR-RES ovarian = test system: NCI/ADR-RES ovarian
OVCAR-3 ovarian = test system: OVCAR-3 ovarian
OVCAR-4 ovarian = test system: OVCAR-4 ovarian
OVCAR-5 ovarian = test system: OVCAR-5 ovarian
OVCAR-8 ovarian = test system: OVCAR-8 ovarian
PC-3 prostate = test system: PC-3 prostate
RPMI-8226 leukemia = test system: RPMI-8226 leukemia
RXF 393 renal = test system: RXF 393 renal
SF-268 CNS = test system: SF-268 CNS
SF-295 CNS = test system: SF-295 CNS
SF-539 CNS = test system: SF-539 CNS
SK-MEL-2 melanoma = test system: SK-MEL-2 melanoma
SK-MEL-28 melanoma = test system: SK-MEL-28 melanoma
SK-MEL-5 melanoma = test system: SK-MEL-5 melanoma
SK-OV-3 ovarian = test system: SK-OV-3 ovarian
SN12C renal = test system: SN12C renal
SNB-19 CNS = test system: SNB-19 CNS
SNB-75 CNS = test system: SNB-75 CNS
SR leukemia = test system: SR leukemia
SW-620 colon = test system: SW-620 colon
T-47D breast = test system: T-47D breast
TK-10 renal = test system: TK-10 renal
U251 CNS = test system: U251 CNS
UACC-257 melanoma = test system: UACC-257 melanoma
UACC-62 melanoma = test system: UACC-62 melanoma
UO-31 renal = test system: UO-31 renal
NCI-H23 lung = test system: NCI-H23 lung

Cc1cn(-c2cc(NC(=O)c3cncc(C#Cc4cnc5ccc(OCCCS(C)(=O)=O)nn45)c3)cc(C(F)(F)F)c2)cn1
3 µM: TGI (NCI-H522 lung)
0.713 µM: TGI (HOP-92 NSCLC)
11.8 µM: TGI (CAKI-1 renal)
3.22 µM: TGI (HCT-116 colon)
7.03 µM: TGI (HS 578T breast)
3.36 µM: TGI (KM12 colon)
> 100 µM: TGI (786-0 renal) | TGI (A498 renal) | TGI (A549 NSCLC) | TGI (ACHN renal) | TGI (DU-145 prostate) | TGI (EKVX NSCLC) | TGI (HCC-2998 colon) | TGI (HCT-15 colon) | TGI (HOP-62 NSCLC) | TGI (HT29 colon) | TGI (IGROV1 ovarian) | TGI (K-562 leukemia) | TGI (MDA-MB-231 breast) | TGI (MDA-MB-435) | TGI (NCI-H460 lung) | TGI (NCI/ADR-RES ovarian) | TGI (OVCAR-3 ovarian) | TGI (OVCAR-4 ovarian) | TGI (OVCAR-5 ovarian) | TGI (OVCAR-8 ovarian) | TGI (PC-3 prostate) | TGI (SF-295 CNS) | TGI (SK-MEL-28 melanoma) | TGI (SK-OV-3 ovarian) | TGI (SN12C renal) | TGI (SNB-19 CNS) | TGI (SW-620 colon) | TGI (T-47D breast) | TGI (TK-10 renal) | TGI (U251 CNS) | TGI (UACC-257 melanoma) | TGI (UACC-62 melanoma) | TGI (UO-31 renal)
1.76 µM: TGI (SNB-75 CNS)
2.52 µM: TGI (MCF7 breast)
10.6 µM: TGI (BT-549 breast)
7.35 µM: TGI (SF-539 CNS)
active: GI50 (CCRF-CEM leukemia) 0.389 µM | GI50 (HCT-116 colon) 0.317 µM | GI50 (HL-60(TB) leukemia) 0.401 µM | GI50 (HOP-92 NSCLC) 0.188 µM | GI50 (K-562 leukemia) 0.128 µM | GI50 (MALME-3M melanoma) 0.397 µM | GI50 (MCF7 breast) 0.31 µM | GI50 (SNB-75 CNS) 0.129 µM | GI50 (SR leukemia) 0.303 µM
2.51 µM: TGI (HL-60(TB) leukemia)
2.88 µM: TGI (SK-MEL-2 melanoma)
10.5 µM: TGI (SK-MEL-5 melanoma)
6.71 µM: TGI (MOLT-4 leukemia)
3.32 µM: TGI (RXF 393 renal)
3.61 µM: TGI (CCRF-CEM leukemia)
92.6 µM: TGI (RPMI-8226 leukemia)
inactive: GI50 (786-0 renal) 2.01 µM | GI50 (A498 renal) > 100 µM | GI50 (A549 NSCLC) 5.34 µM | GI50 (ACHN renal) 4.76 µM | GI50 (BT-549 breast) 1.7 µM | GI50 (CAKI-1 renal) 0.501 µM | GI50 (DU-145 prostate) 1.18 µM | GI50 (EKVX NSCLC) 2.35 µM | GI50 (HCC-2998 colon) 1.94 µM | GI50 (HCT-15 colon) 5.84 µM | GI50 (HOP-62 NSCLC) 1.14 µM | GI50 (HS 578T breast) 1.43 µM | GI50 (HT29 colon) 0.706 µM | GI50 (IGROV1 ovarian) 0.527 µM | GI50 (LOX IMVI melanoma) 0.875 µM | GI50 (M14 melanoma) 1.1 µM | GI50 (MDA-MB-231 breast) 0.43 µM | GI50 (MDA-MB-435) 1.49 µM | GI50 (MOLT-4 leukemia) 0.635 µM | GI50 (NCI-H226 lung) 0.922 µM | GI50 (NCI-H460 lung) 3 µM | GI50 (NCI-H522 lung) 1.21 µM | GI50 (NCI/ADR-RES ovarian) > 100 µM | GI50 (OVCAR-3 ovarian) 2.51 µM | GI50 (OVCAR-4 ovarian) 5.78 µM | GI50 (OVCAR-5 ovarian) 1.79 µM | GI50 (OVCAR-8 ovarian) 0.649 µM | GI50 (PC-3 prostate) 5.88 µM | GI50 (RPMI-8226 leukemia) 2.55 µM | GI50 (RXF 393 renal) 1.14 µM | GI50 (SF-268 CNS) 1.41 µM | GI50 (SF-295 CNS) 29.1 µM | GI50 (SF-539 CNS) 0.552 µM | GI50 (SK-MEL-2 melanoma) 0.427 µM | GI50 (SK-MEL-28 melanoma) 1.51 µM | GI50 (SK-MEL-5 melanoma) 1.55 µM | GI50 (SK-OV-3 ovarian) > 100 µM | GI50 (SN12C renal) 0.551 µM | GI50 (SNB-19 CNS) 2.57 µM | GI50 (SW-620 colon) 0.462 µM | GI50 (T-47D breast) 1.76 µM | GI50 (TK-10 renal) 3.21 µM | GI50 (U251 CNS) 2.67 µM | GI50 (UACC-257 melanoma) 3.98 µM | GI50 (UACC-62 melanoma) 0.706 µM | GI50 (UO-31 renal) 3.59 µM
49.1 µM: TGI (NCI-H226 lung)
27.1 µM: TGI (LOX IMVI melanoma)
5.11 µM: TGI (MALME-3M melanoma)
49.4 µM: TGI (M14 melanoma)
6.98 µM: TGI (SF-268 CNS)
4.82 µM: TGI (SR leukemia)

NC(N)=Nc1ccc(Oc2cccc(Nc3ccc(Cl)cc3)c2)cn1
3.12 µM: TGI (SK-MEL-28 melanoma)
3.28 µM: TGI (UACC-62 melanoma) | TGI (UO-31 renal)
2.57 µM: TGI (SNB-75 CNS)
2.84 µM: TGI (PC-3 prostate)
3.13 µM: TGI (ACHN renal) | TGI (NCI-H522 lung) | TGI (SF-539 CNS)
2.66 µM: TGI (A498 renal)
5.27 µM: TGI (CCRF-CEM leukemia)
8.21 µM: TGI (K-562 leukemia)
3.17 µM: TGI (CAKI-1 renal)
4.58 µM: TGI (KM12 colon)
3.37 µM: TGI (RXF 393 renal)
2.39 µM: TGI (HOP-92 NSCLC)
3.3 µM: TGI (TK-10 renal)
20.5 µM: TGI (NCI/ADR-RES ovarian)
4.46 µM: TGI (OVCAR-8 ovarian)
3.55 µM: TGI (SW-620 colon)
3.24 µM: TGI (NCI-H23 lung)
3.63 µM: TGI (OVCAR-3 ovarian)
4.52 µM: TGI (HS 578T breast)
4.16 µM: TGI (SK-OV-3 ovarian)
3.27 µM: TGI (DU-145 prostate)
3.75 µM: TGI (SF-268 CNS)
4.75 µM: TGI (HL-60(TB) leukemia)
inactive: GI50 (A498 renal) 1.17 µM | GI50 (ACHN renal) 1.73 µM | GI50 (CAKI-1 renal) 1.64 µM | GI50 (CCRF-CEM leukemia) 2.04 µM | GI50 (DU-145 prostate) 1.76 µM | GI50 (HL-60(TB) leukemia) 2.52 µM | GI50 (HOP-92 NSCLC) 1.07 µM | GI50 (HS 578T breast) 1.99 µM | GI50 (K-562 leukemia) 2.66 µM | GI50 (KM12 colon) 2.08 µM | GI50 (NCI-H23 lung) 1.66 µM | GI50 (NCI-H522 lung) 1.53 µM | GI50 (NCI/ADR-RES ovarian) 4.05 µM | GI50 (OVCAR-3 ovarian) 1.8 µM | GI50 (OVCAR-8 ovarian) 1.97 µM | GI50 (PC-3 prostate) 1.46 µM | GI50 (RPMI-8226 leukemia) 2.02 µM | GI50 (RXF 393 renal) 1.78 µM | GI50 (SF-268 CNS) 1.72 µM | GI50 (SF-539 CNS) 1.65 µM | GI50 (SK-MEL-28 melanoma) 1.67 µM | GI50 (SK-OV-3 ovarian) 2.11 µM | GI50 (SNB-75 CNS) 1.27 µM | GI50 (SW-620 colon) 1.83 µM | GI50 (TK-10 renal) 1.69 µM | GI50 (UACC-62 melanoma) 1.74 µM | GI50 (UO-31 renal) 1.71 µM
5.08 µM: TGI (RPMI-8226 leukemia)
